Results as given in patent US20110165277A1, “Biological Materials and Uses Thereof” (priority 2008, published 2011).
Where “and” joins values, the source holds several entries; their conditions need not be identical. Equal entries are not always repeated.

Key:
rumen fluid [1] = assay: Methane and volatile fatty acid production by buffered rumen fluid incubated with hay barley mix (Example 1); type: cell-based, cow; conditions: 500 μg/ml; 16 hours, 39° C.
Method: Thirty ml of a 33% buffered solution of rumen fluid withdrawn from a rumen canulated cow was incubated with 0.3 g of a 50:50 hay barley mix at 39° C. under anaerobic conditions.
(§1) After 16 hours the volume of gas produced and the percentage of methane in the headspace was measured and the resultant fermentation fluid was analysed for volatile fatty acids by HPLC.
Sandalwood oil, and control oils of commercial essential oil mixes or pure oils of eugenol or cinnamaldehyde were added in the amount of 500 μg/ml to the 30 ml buffered solution of rumen fluid prior to incubation. Sandalwood oil was obtained from Cardiff University and Sigma [SAFC (e.g. W30,050-0 lot no. 03722CC-396) and Sandalwood oil manufactured by Fluka (355263/1 lot no. 52706264).]

[2] = Further sandalwood analogues: volatile fatty acid and methane production (Example 7, Table 14); type: cell-based
Method: (§2) Further testing of sandalwood analogues was conducted following the protocols described in Examples 3 and 5.

rumen fluid [3] = assay: Methane production by buffered rumen fluid, sandalwood oil and synthetic replacements (Example 4); type: cell-based, cow; conditions: 5, 50 or 100 or 500 pg/ml; 16 hours
Method: Thirty ml of a 33% buffered solution of rumen fluid withdrawn from a rumen canulated cow was incubated with 0.3 g of a 50:50 hay barley mix at 39° C. under anaerobic conditions
as §1
Sandalwood oil from either Fluka or SAFC and two different batches of Javanol (Givaudan) or a single batch of Santaliff (International Flavors & Fragrances) (both Javanol and Santaliff are artifical Sandalwood replacements) were added in the amount of 5, 50 or 100 or 500 pg/ml to the 30 ml buffered solution of rumen fluid prior to incubation.

[4] = Further sandalwood analogues: CH4 per bottle, compound in DMSO or ETOH (Example 7, Table 15); type: cell-based; conditions: for CH4: single bottles rep a, b, c
Method: as §2

| Structure (SMILES) | Acetate ([2]; 5 μg/ml) | Butyrate ([2]; 5 μg/ml) | Methane ([2]; 5 μg/ml) | Propionate ([2]; 5 μg/ml) | TVFA ([2]; 5 μg/ml) | Acetate ([2]; 50 μg/ml) | Butyrate ([2]; 50 μg/ml) | Methane ([2]; 50 μg/ml) | Propionate ([2]; 50 μg/ml) | TVFA ([2]; 50 μg/ml) | Acetate ([2]; 100 μg/ml) | Butyrate ([2]; 100 μg/ml) | Methane ([2]; 100 μg/ml) | Propionate ([2]; 100 μg/ml) | TVFA ([2]; 100 μg/ml) | Acetate ([2]; 500 μg/ml) | Butyrate ([2]; 500 μg/ml) | Methane ([2]; 500 μg/ml) | Propionate ([2]; 500 μg/ml) | TVFA ([2]; 500 μg/ml) | further results |
| --- | --- | --- | --- | --- | --- | --- | --- | --- | --- | --- | --- | --- | --- | --- | --- | --- | --- | --- | --- | --- | --- |
| O=CC=Cc1ccccc1 [Cinnamaldehyde] | – | – | – | – | – | – | – | – | – | – | – | – | – | – | – | – | – | – | – | – | Acetate formation (rumen fluid [1]): 2832 μmole/g of feed; Butyrate formation (rumen fluid [1]): 73 μmole/g of feed; Methane formation (rumen fluid [1]): 1471 μmole/g of feed; Propionate formation (rumen fluid [1]): 492 μmole/g of feed; Total volatile fatty acids formation (rumen fluid [1]): 3398 μmole/g of feed |
| CC1=CCC(C=CC(C)C(C)O)C1(C)C (stereo not drawn) [Ebanol, 3-Methyl-5-(2,2,3-trimethyl-3-cyclopenten-1-yl)-4-penten-2-ol] | 2136 μmol/g of feed added | 488 μmol/g of feed added | 952 μmol/g of feed added | 427 μmol/g of feed added | 3051 μmol/g of feed added | 2129 μmol/g of feed added | 474 μmol/g of feed added | 934 μmol/g of feed added | 436 μmol/g of feed added | 3039 μmol/g of feed added | 2430 μmol/g of feed added | 458 μmol/g of feed added | 833 μmol/g of feed added | 533 μmol/g of feed added | 3421 μmol/g of feed added | 2333 μmol/g of feed added | 332 μmol/g of feed added | 683 μmol/g of feed added | 939 μmol/g of feed added | 3604 μmol/g of feed added | – |
| C=CCc1ccc(O)c(OC)c1 [Eugenol] | – | – | – | – | – | – | – | – | – | – | – | – | – | – | – | – | – | – | – | – | Acetate formation (rumen fluid [1]): 2817 μmole/g of feed; Butyrate formation (rumen fluid [1]): 73 μmole/g of feed; Methane formation (rumen fluid [1]): 1436 μmole/g of feed; Propionate formation (rumen fluid [1]): 590 μmole/g of feed; Total volatile fatty acids formation (rumen fluid [1]): 3479 μmole/g of feed |
| CC(=CCC1CC=C(C)C1(C)C)CO (stereo not drawn) [Santaliff, 2-Methyl-4-(2,2,3-trimethyl-3-cyclopenten-1-yl)-2-buten-1-ol] | 2174 μmol/g of feed added | 458 μmol/g of feed added | 1031 μmol/g of feed added | 466 μmol/g of feed added | 3098 μmol/g of feed added | 2142 μmol/g of feed added | 490 μmol/g of feed added | 1052 μmol/g of feed added | 442 μmol/g of feed added | 3074 μmol/g of feed added | 2301 μmol/g of feed added | 462 μmol/g of feed added | 844 μmol/g of feed added | 543 μmol/g of feed added | 3305 μmol/g of feed added | 2101 μmol/g of feed added | 296 μmol/g of feed added | 801 μmol/g of feed added | 741 μmol/g of feed added | 3138 μmol/g of feed added | methane compared to the control experiments (rumen fluid [3]): significantly decreased |
| CCC(=CCC1CC=C(C)C1(C)C)CO (stereo not drawn) [Sanjinol, 2-ethyl-4(2,2,3-trimethyl-3-cyclopentenyl)-2-buten-1-ol] | 1978 μmol/g of feed added | 448 μmol/g of feed added | 1107 μmol/g of feed added | 426 μmol/g of feed added | 2852 μmol/g of feed added | 2192 μmol/g of feed added | 466 μmol/g of feed added | 835 μmol/g of feed added | 579 μmol/g of feed added | 3237 μmol/g of feed added | 2359 μmol/g of feed added | 512 μmol/g of feed added | 795 μmol/g of feed added | 697 μmol/g of feed added | 3568 μmol/g of feed added | 1849 μmol/g of feed added | 225 μmol/g of feed added | 741 μmol/g of feed added | 744 μmol/g of feed added | 2818 μmol/g of feed added | CH4 (mean of rep a-c) ([4]; 150 ug/30 ml in 200 ul DMSO): 938.5618 µmol/g; CH4 ([4]; 150 ug/30 ml in 200 ul DMSO): 1107.671 µmol/g and 793.8945 µmol/g and 914.1195 µmol/g; CH4 (mean of rep a-c) ([4]; 150 ug/30 ml in 200 ul ETOH): 1153.269 µmol/g; CH4 ([4]; 150 ug/30 ml in 200 ul ETOH): 1064.879 µmol/g and 1232.288 µmol/g and 1162.641 µmol/g; CH4 (mean of rep a-c) ([4]; 15000 ug/30 ml in 200 ul DMSO): 743.6664 µmol/g; CH4 ([4]; 15000 ug/30 ml in 200 ul DMSO): 615.569 µmol/g and 893.1559 µmol/g and 722.2742 µmol/g; CH4 (mean of rep a-c) ([4]; 15000 ug/30 ml in 200 ul ETOH): 1158.419 µmol/g; CH4 ([4]; 15000 ug/30 ml in 200 ul ETOH): 1063.899 µmol/g and 1351.649 µmol/g and 1059.708 µmol/g |
| CC(C)=CCCC(C)=CC=O [Citral] | – | – | – | – | – | – | – | – | – | – | – | – | – | – | – | – | – | – | – | – | Acetate formation (rumen fluid [1]): 2754 μmole/g of feed; Butyrate formation (rumen fluid [1]): 72 μmole/g of feed; Methane formation (rumen fluid [1]): 1461 μmole/g of feed; Propionate formation (rumen fluid [1]): 534 μmole/g of feed; Total volatile fatty acids formation (rumen fluid [1]): 3361 μmole/g of feed |
| CCC(=CCC1CC=C(C)C1(C)C)CO (stereo not drawn) [Bacdanol, 2-ethyl-4-(2,2,3-trimethyl-3-cyclopenten-1-yl)-2-buten-1-ol] | 2037 μmol/g of feed added | 438 μmol/g of feed added | 934 μmol/g of feed added | 444 μmol/g of feed added | 2919 μmol/g of feed added | 2049 μmol/g of feed added | 458 μmol/g of feed added | 1047 μmol/g of feed added | 434 μmol/g of feed added | 2942 μmol/g of feed added | 2419 μmol/g of feed added | 514 μmol/g of feed added | 995 μmol/g of feed added | 515 μmol/g of feed added | 3448 μmol/g of feed added | 2331 μmol/g of feed added | 309 μmol/g of feed added | 942 μmol/g of feed added | 864 μmol/g of feed added | 3503 μmol/g of feed added | – |
| CC1=CCC(CCC(C)C(C)O)C1(C)C (stereo not drawn) [Sandalore, 5-(2,2,3-Trimethyl-3-cyclopentenhyl)-3-methylpentan-2-ol] | 2118 μmol/g of feed added | 487 μmol/g of feed added | 951 μmol/g of feed added | 431 μmol/g of feed added | 3036 μmol/g of feed added | 1972 μmol/g of feed added | 453 μmol/g of feed added | 1086 μmol/g of feed added | 409 μmol/g of feed added | 2834 μmol/g of feed added | 2119 μmol/g of feed added | 432 μmol/g of feed added | 1174 μmol/g of feed added | 471 μmol/g of feed added | 3023 μmol/g of feed added | 2249 μmol/g of feed added | 305 μmol/g of feed added | 902 μmol/g of feed added | 897 μmol/g of feed added | 3451 μmol/g of feed added | – |
| CC1C2CC(CC2C2CCC(O)CC2)C1(C)C (stereo not drawn) [Sandela, 4-(5,5,6-Trimethylbicyclo[2.2.1]hept-2-yl)cyclohexan-1-ol] | 2223 μmol/g of feed added | 482 μmol/g of feed added | 996 μmol/g of feed added | 465 μmol/g of feed added | 3169 μmol/g of feed added | 2235 μmol/g of feed added | 513 μmol/g of feed added | 1052 μmol/g of feed added | 450 μmol/g of feed added | 3198 μmol/g of feed added | 2297 μmol/g of feed added | 515 μmol/g of feed added | 1078 μmol/g of feed added | 477 μmol/g of feed added | 3289 μmol/g of feed added | 2270 μmol/g of feed added | 317 μmol/g of feed added | 928 μmol/g of feed added | 680 μmol/g of feed added | 3267 μmol/g of feed added | – |
